# Source: patent US20120004405A1, “COMPOUNDS HAVING ACTIVITY IN CORRECTING MUTANT CFTR CELLULAR PROCESSING” (priority 2008, published 2012)
# “Also recorded” adds a separate entry of the source.
# Experiments:
# ΔF508-CFTR [1] = molecular target: T1, ΔF508-CFTR (Homo sapiens, UniProt P13569, DEL508-508); assay: Iodide efflux from ΔF508-CFTR epithelial cells; assay type: cell-based; conditions: for iodide efflux from ΔF508-CFTR epithelial cells: iodide-loaded cells, compound added at time point 0, iodide sensitive electrode
# T1 construct: Human epithelial cells containing wildtype (A) or ΔF508-CFTR (B); endogenous in cells; host or cells: CFBE14o- human epithelial cells (provided by Dr. D. C. Gruenert)
# Protocol: Iodide efflux experiments were performed as described. Briefly, Cells (80-90% confluent) were incubated for 1 h in a loading buffer containing 136 mM NaI, 3 mM KNO3, 2 mM Ca(NO3)2, 11 mM glucose, and 20 mM Hepes, adjusted to pH 7.4 with NaOH. To remove extracellular iodide, cells were thoroughly washed with efflux buffer (136 mM NaNO3 replacing 136 mM NaI in the loading buffer) and then equilibrated in 2.5 ml efflux buffer for 1 min. The efflux buffer was changed at 1 min intervals over the duration of the experiment. Four minutes after anion substitution, cells were exposed to compound 1D. The amount of iodide in each 2.5 ml sample of efflux buffer was determined using an iodide-selective electrode (HNU Systems Ltd, Warrington, UK). Cells were loaded and experiments performed at room temperature.
# CFTR = molecular target: T2, CFTR (Mus musculus, UniProt P26361); assay: Hyaluronan export through CFTR in a mouse fibroblasts cell line; assay type: cell-based
# T2 construct: endogenous in cells
# Protocol: (§1) The cells were incubated for 24 hours at 37° C., the media were replaced with fresh media and after additional 24 hours aliquots (5 and 20 μl) of the culture medium were used for measurement of the hyaluronan concentration in the cell culture medium by an ELISA. The wells of a 96 well Covalink-NH-microtiter plate (NUNC) were coated with 100 μl of a mixture of […] of hyaluronan (Healon®), 9.2 μg/ml of N-Hydroxysuccin-imide-3-sulfonic acid and 615 μl/ml of 1-ethyl-3-(3-dimethylaminopropyl)-carbodiimide for 2 hours at room temperature and overnight at 4° C. The wells were washed three times with 2 M NaCl, 41 mM MgSO4, 0.05% Tween-20 in 50 mM phosphate buffered saline pH 7.2 (buffer A) and once with 2 M NaCl, 41 mM MgSO4, in phosphate buffered saline pH 7.2. Additional binding sites were blocked by incubation with 300 μl of 0.5% bovine serum albumin in phosphate buffered saline for 30 min at 37° C. Calibration of the assay was performed with standard concentrations of hyaluronan ranging from 15 ng/ml to 6000 ng/ml in equal volumes of culture medium as used for measurement of the cellular supernatants. […] The adsorption was read at 490 nm. The concentrations in the samples were calculated from a logarithmic regression curve of the hyaluronan standard solutions.
# nasal epithelium = assay: Transepithelial nasal resistance measured on the inventor; assay type: in vivo; conditions: human
# Protocol: The effect of compound 1D was evaluated on the inventor of the present application by measurement of the transepithelial nasal resistance. This is a standard protocol for testing pharmaceutically active compounds on humans, (http://central.igc.gulbenkian.pt/cftr/vr/e/schuler_basic_protocol_for_measurement_of_transepithelial_nasal_potential_difference.pdf) (see also the results of FIG. 9).
# The nasal epithelium was equilibrated with isotonic (0.9%) NaCl, 2 mM CaCl2. […] To determine the maximal possible potential differences in this experiment, the solution was changed to isotonic NaCl, 2 mM CaCl2 containing 10 μM amiloride that is known to close Na+ channels. […] After equilibration, the solution was changed to low salt with 0.09% NaCl, 0.2 mM CaCl2 containing 10 μM isoprenalol.
# [2] = test system: wildtype HBE14o- cells (normal CFTR); assay: Transepithelial resistance of wildtype HBE14o- epithelial cells; assay type: cell-based, human
# wildtype CFTR = molecular target: T3, wildtype CFTR (Homo sapiens, UniProt P13569); assay: Western blotting of cell surface expressed CFTR, wildtype epithelial cells; assay type: cell-based; conditions: increasing concentration of compound
# T3 construct: Human epithelial cells containing wildtype CFTR (16HBE14o-); endogenous in cells; host or cells: 16HBE14o- human epithelial cells (provided by Dr. D. C. Gruenert)
# Protocol: (§2) Human epithelial cells containing wildtype CFTR (16HBE14o-) and the mutant cell line CFBE14o- were kindly provided by Dr. D. C. Gruenert. They were grown in suspension culture in Dulbeccós medium supplemented with streptomycin/penicillin (100 units of each/ml) and 10% foetal calf serum.
# (§3) The cell pellets were solubilized by vortexing in buffer (Tris-HCl 0.06 M; 2% SDS, 10% glycerol, 0.1M dithiothreitol, 0.1% bromophenol-blue and the protease inhibitor cocktail, pH 6.8). Following centrifugation (2 min, 8.000 g) samples of the supernatant were separated on 10% poly-acrylamide slabgels. Proteins were subsequently electroblotted onto nitrocellulose paper in 0.025 M Tris, 0.192 M glycine, 20% methanol. The blots were incubated at 4° C. with 0.02M Tris-HCl, 0.15M NaCl, 0.1% Tween20, pH7.5 followed by overnight incubation at 4° C. with a 1:500 dilution of primary anti-CFTR antibody in 0.02M Tris-HCl, 0.15M NaCl, 0.1% Tween20, pH7.5. Blots were washed three times, incubated with peroxidase-conjugated anti-rabbit IgG for 2 h, and washed four times. Peroxidase activity was detected with […] reagent (ECL kit; Amersham, Braunschweig, Germany) on X-ray film.
# hyaluronan exporter MRP5 = molecular target: T4, hyaluronan exporter MRP5 (Homo sapiens, UniProt O15440); assay: Determination of hyaluronan export from human fibroblasts (ELISA of culture medium); assay type: cell-based; conditions: incubated two days with increasing concentrations; hyaluronan in culture supernatant
# T4 construct: tested on human fibroblasts cultures for their influence on hyaluronan exporter MRP5; endogenous in cells; host or cells: human fibroblast cultures
# Protocol: as §1
# ΔF508-CFTR [3] = molecular target: T1, ΔF508-CFTR; assay: Western blotting of cell surface expressed CFTR, ΔF508-CFTR epithelial cells; assay type: cell-based
# Protocol: as §2, §3
# [4] = Alamarblue cytotoxicity assay; assay type: cell-based; conditions: up to concentrations of 400 μM; data not shown
# Protocol: In a preferred embodiment, the present invention relates to compounds 1B, 1C, 1D 1F and 1G. […] Compound 1D is particularly preferred.
# The cytotoxicity of the drugs was measured as described.
# [5] = test system: mutant CFBE14o- cells (ΔF508-CFTR); assay: Transepithelial resistance of mutant CFBE14o- epithelial cells; assay type: cell-based, human
# Protocol: as §2
# A cell monolayer on a thin filter membrane (growth area, 4.2 cm2; pore diameter, 0.4 μm; thickness, 20 μm; Falcon, Heidelberg, Germany) served as a test barrier for the invasive capabilities of malignant cells. When confluent, these cells from a tight epithelial sheet with a high trans-epithelial electrical resistance (TEER), which was measured continuously using a STX-2 electrode (WPI, Sarasota, USA). Permeabilization of the epithelial cell layer (MDCK-C7 cells) due to the invasive activity of the melanoma cells can be determined by trans-epithelial electrical resistance (TEER) measurements, as previously reported [24;25].
# T1 sequence (P13569 with tags, fused parts or gaps DEL508-508): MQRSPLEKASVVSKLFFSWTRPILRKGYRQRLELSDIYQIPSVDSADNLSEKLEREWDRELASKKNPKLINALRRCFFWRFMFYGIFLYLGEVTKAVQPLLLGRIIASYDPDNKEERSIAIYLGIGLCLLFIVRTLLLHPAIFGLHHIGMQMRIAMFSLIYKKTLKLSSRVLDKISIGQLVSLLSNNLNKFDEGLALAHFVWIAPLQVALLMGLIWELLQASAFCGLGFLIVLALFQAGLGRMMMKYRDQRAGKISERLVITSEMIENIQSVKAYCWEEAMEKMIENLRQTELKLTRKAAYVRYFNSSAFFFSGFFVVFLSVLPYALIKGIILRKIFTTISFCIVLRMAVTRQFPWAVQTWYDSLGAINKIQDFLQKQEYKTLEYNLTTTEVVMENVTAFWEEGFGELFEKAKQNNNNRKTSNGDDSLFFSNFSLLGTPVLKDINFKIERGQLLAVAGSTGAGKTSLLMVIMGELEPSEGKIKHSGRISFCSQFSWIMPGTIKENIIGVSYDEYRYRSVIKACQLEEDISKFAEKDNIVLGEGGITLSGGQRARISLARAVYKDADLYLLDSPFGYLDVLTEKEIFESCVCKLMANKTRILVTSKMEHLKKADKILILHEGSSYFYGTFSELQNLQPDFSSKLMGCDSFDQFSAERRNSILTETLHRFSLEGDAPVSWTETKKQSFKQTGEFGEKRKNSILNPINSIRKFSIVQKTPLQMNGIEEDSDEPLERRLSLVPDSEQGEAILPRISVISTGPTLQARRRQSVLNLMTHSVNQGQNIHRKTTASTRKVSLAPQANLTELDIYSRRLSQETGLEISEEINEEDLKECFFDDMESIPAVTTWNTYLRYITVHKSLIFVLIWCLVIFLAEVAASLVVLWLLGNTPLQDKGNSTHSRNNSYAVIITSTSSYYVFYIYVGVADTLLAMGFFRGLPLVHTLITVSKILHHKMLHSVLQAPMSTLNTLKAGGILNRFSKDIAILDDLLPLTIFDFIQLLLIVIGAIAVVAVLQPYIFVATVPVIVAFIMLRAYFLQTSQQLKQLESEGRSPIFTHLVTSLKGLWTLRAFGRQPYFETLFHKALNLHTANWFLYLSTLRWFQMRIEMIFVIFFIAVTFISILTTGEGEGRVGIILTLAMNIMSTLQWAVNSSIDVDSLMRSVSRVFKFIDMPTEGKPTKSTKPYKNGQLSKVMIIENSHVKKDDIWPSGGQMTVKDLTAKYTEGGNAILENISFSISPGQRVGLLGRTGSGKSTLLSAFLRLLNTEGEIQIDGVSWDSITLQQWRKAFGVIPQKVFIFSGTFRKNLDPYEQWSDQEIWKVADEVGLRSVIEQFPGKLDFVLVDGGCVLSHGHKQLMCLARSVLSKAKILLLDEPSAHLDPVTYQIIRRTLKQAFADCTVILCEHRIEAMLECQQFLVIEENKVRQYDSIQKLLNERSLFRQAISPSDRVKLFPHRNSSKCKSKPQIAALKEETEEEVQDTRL
# T4 sequence (O15440 whole entry): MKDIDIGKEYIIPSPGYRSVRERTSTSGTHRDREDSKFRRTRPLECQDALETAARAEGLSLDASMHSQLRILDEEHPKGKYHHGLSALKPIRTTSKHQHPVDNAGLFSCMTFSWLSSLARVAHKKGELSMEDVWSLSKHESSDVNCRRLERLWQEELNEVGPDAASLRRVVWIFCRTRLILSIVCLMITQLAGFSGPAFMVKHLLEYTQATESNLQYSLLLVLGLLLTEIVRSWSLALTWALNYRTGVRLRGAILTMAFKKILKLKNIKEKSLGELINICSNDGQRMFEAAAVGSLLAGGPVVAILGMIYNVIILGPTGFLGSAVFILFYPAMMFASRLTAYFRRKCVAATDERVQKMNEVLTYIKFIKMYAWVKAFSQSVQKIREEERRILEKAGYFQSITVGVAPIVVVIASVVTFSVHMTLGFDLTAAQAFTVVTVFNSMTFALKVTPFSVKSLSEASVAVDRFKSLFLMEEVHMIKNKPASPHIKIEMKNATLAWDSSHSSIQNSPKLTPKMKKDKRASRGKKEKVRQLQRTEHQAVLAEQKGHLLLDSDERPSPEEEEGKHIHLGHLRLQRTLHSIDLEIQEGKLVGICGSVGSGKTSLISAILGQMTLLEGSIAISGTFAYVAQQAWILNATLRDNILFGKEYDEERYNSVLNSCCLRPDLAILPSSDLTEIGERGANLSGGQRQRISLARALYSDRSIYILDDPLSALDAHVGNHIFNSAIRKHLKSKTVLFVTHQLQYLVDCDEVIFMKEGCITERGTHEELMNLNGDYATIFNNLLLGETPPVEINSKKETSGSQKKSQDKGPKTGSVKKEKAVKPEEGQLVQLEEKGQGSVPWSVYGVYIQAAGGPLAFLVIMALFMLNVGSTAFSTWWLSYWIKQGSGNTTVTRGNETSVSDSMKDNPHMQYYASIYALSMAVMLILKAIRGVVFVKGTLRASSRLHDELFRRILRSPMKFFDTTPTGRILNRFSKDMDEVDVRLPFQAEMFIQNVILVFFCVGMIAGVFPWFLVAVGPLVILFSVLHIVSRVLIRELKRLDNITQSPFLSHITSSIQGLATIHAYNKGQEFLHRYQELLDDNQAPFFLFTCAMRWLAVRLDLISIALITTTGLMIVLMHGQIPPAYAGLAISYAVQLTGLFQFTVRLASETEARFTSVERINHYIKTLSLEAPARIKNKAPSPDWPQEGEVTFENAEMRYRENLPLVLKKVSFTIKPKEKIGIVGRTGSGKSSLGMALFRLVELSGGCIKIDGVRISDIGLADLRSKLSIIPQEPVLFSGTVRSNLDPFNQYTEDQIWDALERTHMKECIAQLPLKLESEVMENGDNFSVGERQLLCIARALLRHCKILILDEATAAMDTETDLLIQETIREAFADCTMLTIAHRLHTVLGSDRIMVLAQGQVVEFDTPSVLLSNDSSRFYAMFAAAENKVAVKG
# T3 sequence (P13569 whole entry): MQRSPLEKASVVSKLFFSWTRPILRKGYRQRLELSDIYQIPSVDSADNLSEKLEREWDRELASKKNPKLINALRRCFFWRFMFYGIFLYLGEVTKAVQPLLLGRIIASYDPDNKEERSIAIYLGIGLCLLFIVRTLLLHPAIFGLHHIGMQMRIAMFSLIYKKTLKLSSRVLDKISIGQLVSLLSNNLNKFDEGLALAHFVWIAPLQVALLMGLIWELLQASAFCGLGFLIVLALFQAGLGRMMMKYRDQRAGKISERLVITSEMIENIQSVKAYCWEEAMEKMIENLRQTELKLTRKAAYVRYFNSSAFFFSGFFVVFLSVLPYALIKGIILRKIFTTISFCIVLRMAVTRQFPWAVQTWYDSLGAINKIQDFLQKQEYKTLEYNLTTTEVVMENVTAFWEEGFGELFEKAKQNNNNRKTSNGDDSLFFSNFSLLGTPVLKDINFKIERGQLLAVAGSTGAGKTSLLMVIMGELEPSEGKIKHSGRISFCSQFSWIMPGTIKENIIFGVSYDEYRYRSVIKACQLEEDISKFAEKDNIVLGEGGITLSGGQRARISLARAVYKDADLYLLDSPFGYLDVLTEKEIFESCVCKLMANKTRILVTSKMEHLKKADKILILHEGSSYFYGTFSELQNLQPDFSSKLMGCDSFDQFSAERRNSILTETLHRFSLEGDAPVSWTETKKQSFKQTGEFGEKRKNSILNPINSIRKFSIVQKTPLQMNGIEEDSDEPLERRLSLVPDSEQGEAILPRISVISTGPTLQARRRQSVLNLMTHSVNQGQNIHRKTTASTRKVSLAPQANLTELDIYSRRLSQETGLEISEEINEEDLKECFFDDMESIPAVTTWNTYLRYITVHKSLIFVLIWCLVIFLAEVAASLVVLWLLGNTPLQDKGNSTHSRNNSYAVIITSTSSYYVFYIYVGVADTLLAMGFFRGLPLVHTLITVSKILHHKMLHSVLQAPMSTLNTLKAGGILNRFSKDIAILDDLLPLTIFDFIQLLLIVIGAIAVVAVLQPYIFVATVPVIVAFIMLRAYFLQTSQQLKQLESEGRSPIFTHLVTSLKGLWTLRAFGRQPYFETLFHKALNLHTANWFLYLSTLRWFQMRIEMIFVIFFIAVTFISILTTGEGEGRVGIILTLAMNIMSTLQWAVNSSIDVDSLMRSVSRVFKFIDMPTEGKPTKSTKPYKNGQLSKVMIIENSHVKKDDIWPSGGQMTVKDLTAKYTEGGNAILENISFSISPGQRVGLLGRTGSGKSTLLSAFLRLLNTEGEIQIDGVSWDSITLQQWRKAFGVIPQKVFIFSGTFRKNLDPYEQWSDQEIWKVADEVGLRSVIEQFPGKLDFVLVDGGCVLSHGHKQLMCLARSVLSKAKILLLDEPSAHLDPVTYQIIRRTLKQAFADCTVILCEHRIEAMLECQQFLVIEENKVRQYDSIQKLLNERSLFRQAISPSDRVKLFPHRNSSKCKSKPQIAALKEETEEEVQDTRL
smiles,measurement,setting,value
"O=C(O)c1ccc(/C=C2\SC(=S)N(c3cccc(C(F)(F)F)c3)C2=O)cc1 [CFTR172, reference compound]",effect on D4 activation of iodide efflux through F508-CFTR,ΔF508-CFTR [1]; simultaneous addition with D4,reduces the activation
"CC(=O)Nc1c(O)cccc1Oc1ccccc1C(=O)O [Compound 1B, 2-(2-acetamido-3-hydroxyphenoxy)benzoic acid]",iodide efflux from ΔF508-CFTR epithelial cells,ΔF508-CFTR [1],stimulates iodide efflux
"CC(=O)Nc1c(O)cc(O)cc1Oc1ccc(N)cc1C(=O)O [Compound 1D, 2-(2-acetamido-3,5-dihydroxyphenoxy)-5-aminobenzoic acid]",hyaluronan export through CFTR,CFTR,activated
same,transepithelial nasal resistance,"nasal epithelium; 100 μM in isotonic NaCl, 2 mM CaCl2, after a transient increase",decreased below the equilibrating solution
same,reversibility of the effect on transepithelial nasal resistance,nasal epithelium; wash out,reversible
same,"transepithelial resistance of epithelial cells containing normal CFTR, immediate effect",[2]; FIG. 10,drops immediately
same,TER of normal cells over a period of 90 hours,[2]; FIG. 12,reduce the TER
same,expression of wildtype CFTR on the cell surface (Western blotting),wildtype CFTR,slightly decreased
same,activation of hyaluronan export from human fibroblasts,hyaluronan exporter MRP5,most active; also recorded: most activating
same,iodide efflux from ΔF508-CFTR epithelial cells,ΔF508-CFTR [1],stimulated a sudden burst of iodide efflux
same,iodide efflux from ΔF508-CFTR epithelial cells,ΔF508-CFTR [1]; listed as D4,channels immediately open
same,concentration at which increase of membrane expression on ΔF508-CFTR epithelial cells was observed,ΔF508-CFTR [3]; Western blotting,100 µM
same,expression of ΔF508-CFTR on the cell surface / plasma membrane (Western blotting),"ΔF508-CFTR [3]; human epithelial cells, increasing concentration of compound",recruited to the plasma membrane; also recorded: enhanced; also recorded: restored plasma membrane expression
same,toxicity (Alamarblue assay),[4],not toxic
same,transepithelial resistance of ΔF508-CFTR epithelial cells over a longer time period,[5]; 100 μM,increase in transepithelial resistance; also recorded: long lasting rescue of ΔF508-CFTR
same,transepithelial resistance of epithelial cells containing F508-CFTR,"[5]; FIG. 10, compared to 8-Bromo-cAMP and control",resistance increases
same,TER of F508-CFTR cells over a period of 90 hours,"[5]; FIG. 12, versus control without any treatment",drops below the control
"N=C(N)NC(=O)c1nc(Cl)c(N)nc1N [amiloride, reference compound]",transepithelial nasal resistance,"nasal epithelium; 10 μM in isotonic NaCl, 2 mM CaCl2",increased to a maximal valued
"CC(C)NCC(O)c1ccc(O)c(O)c1 (stereo not shown) [isoprenalol, reference compound]",transepithelial nasal resistance,"nasal epithelium; 10 μM in low salt 0.09% NaCl, 0.2 mM CaCl2",maximal drop of the transepithelial resistance
